# Laboratory results as given in patent US9687486B2, “Methods of treating atherosclerosis or myeloproliferative neoplasms by administering a lyn kinase activator” (THE TRUSTEES OF COLUMBIA UNIVERSITY IN THE CITY OF NEW YORK, priority 2012, dated 2017).
# “Also recorded” adds a separate entry of the source.
# Columns and labels:
# platelets = assay: Platelet count in Abcg4−/− mice with tolimidone; format: in vivo, mouse
# Lyn tyrosine kinase = Lyn tyrosine kinase (Homo sapiens, UniProt P07948); conditions: Saporito et al. 2012; cited from earlier work
# Chain of Lyn tyrosine kinase (P07948 whole entry): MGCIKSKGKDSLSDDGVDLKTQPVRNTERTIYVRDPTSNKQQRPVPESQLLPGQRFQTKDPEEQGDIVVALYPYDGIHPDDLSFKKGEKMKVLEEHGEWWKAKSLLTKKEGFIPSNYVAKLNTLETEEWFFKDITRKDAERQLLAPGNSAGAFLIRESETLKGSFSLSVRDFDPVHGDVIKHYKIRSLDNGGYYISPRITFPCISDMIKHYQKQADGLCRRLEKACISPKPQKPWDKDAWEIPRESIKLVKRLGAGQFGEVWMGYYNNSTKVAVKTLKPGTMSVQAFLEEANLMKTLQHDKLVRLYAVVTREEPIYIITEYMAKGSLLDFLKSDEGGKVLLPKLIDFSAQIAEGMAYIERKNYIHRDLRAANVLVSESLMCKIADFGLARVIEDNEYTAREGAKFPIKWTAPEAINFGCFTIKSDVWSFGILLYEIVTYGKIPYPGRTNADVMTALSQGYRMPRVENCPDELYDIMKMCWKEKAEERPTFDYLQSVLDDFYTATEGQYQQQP
# ulcer = conditions: rats, 10 mg/kg, oral; Lipinski et al. 1980; cited from earlier work
# MkPs = assay: MkP proliferation by EdU incorporation; format: cell-based, mouse; conditions: in the presence of TPO
# Method: FIG. 3. Shown are results all from WT, Abcg4^-/- or Lyn^-/- MkPs (n=4). (A) Quantification of tyrosine-phosphorylated c-CBL in response to TPO. (B) Tyrosine-phosphorylated c-CBL levels 5 min after TPO treatment and with or without pretreatment with CD (3 mM), CD-chol (3 mM CD) for 30 min or rHDL (20 μg apoA-I/ml) for 2 hours. (C) Tyrosine-phosphorylated c-CBL with or without 5 min TPO treatment or SU6656 pretreatment (10 μg/ml for 2 h). (D) Cell surface c-MPL with or without TPO or SU6656 treatment for 2 h. (E) Tyrosine-phosphorylated c-CBL (5 min in response to TPO). (F) cell surface c-MPL (2 h TPO treatment) with or without pretreatment with CD-chol (3 mM CD) for 30 min. (G) 16 h EdU incorporation in the presence of TPO and with or without CD (3 mM), CD-Chol (3 mM CD) pretreatment for 30 min or rHDL (20 μg/ml) for 16 […]-5 and p-ERK1/2 levels with or without TPO for 10 minutes. TPO was 30 ng/ml for all the assays shown. Error bars are S.E.M. *P<0.05 WT vs Abcg4^-/- TPO and ^P<0.05 for treatment effect. Blood leukocytes and BM HSPCs were stained and analyzed or sorted as described (Murphy, A. J. et al. 2011). Briefly, BM cells from the mouse femurs and tibias were stained with a cocktail of antibodies to lineage committed cells (CD45R, CD19, CD11b, CD3e, TER-119, CD2, CD8, CD4, Ly-6C/G: All FITC, eBioscience), antibodies to Sca1 (Pacific Blue) and ckit (APC Cy7) to identify HSPC populations and LSK (lin-, Sac1+ and ckit+) cells, and antibodies to CD16/CD32 (FcγRII/III), CD34 to separate CMP (lin-, Sca1-, ckit+, CD34int, […] (lin-, Sca1-, ckit+, CD34int, […] (lin-, Sca1-, ckit+, CD34lo, FcγRII/IIIlo). For DNA content analysis (G2M phase), BM cells were fixed, and stained with DAPI (Invitrogen) prior to flow cytometry analysis. To determine in vivo cell proliferation, EdU (Invitrogen) was injected into mice via the tail vein 24 hours prior to being sacrificed. Cells were immunostained as described above in preparation for flow cytometry. Cells were then fixed and permeabilized using 0.01% saponin (w/v; Fluka) and 1% FCS (v/v) in IC fixation buffer (eBiosciences) for 30 minutes. Cells were then washed and stained with Alexa Fluor-conjugated azides using the Click-iT system (Invitrogen). Proliferation was quantified as percentage of EdU^+ cells by flow cytometry.
# c-CBL = assay: c-Cbl tyrosine phosphorylation in MkPs in response to TPO, flow cytometry; format: cell-based, mouse
# Method: BM progenitor cells were stimulated with TPO at the indicated concentration for the specified period of time at 37° C. and then immediately diluted with ice-cold buffer and placed on ice to prevent further changes in phosphorylation. Cells were then centrifuged and the pellet resuspended in BD fix buffer (BD Biosciences) for 10 mins on ice. The cells were washed with BD flow cytometry staining buffer, centrifuged and then resuspended in BD cytofix/perm buffer III for 20 mins. After this the cells were washed and resuspended in BD staining buffer and incubated with lineage (Sca1, CD127, CD45R, CD19, CD11b, CD3e, TER-119, CD2, CD8, CD4, and Ly-6G; all FITC; eBioscience) and progenitor cell markers, ckit, CD16/CD32 (FcγRII/III), CD34, CD41 and anti-phospho-c-Cbl ([…]/[…]; BD biosciences) or an isotype control for 30 mins on ice. The cells were then washed, resuspended in FACS buffer and run on an LSRII. Phosphorylated c-Cbl was normalized against isotype control staining.
# [1] = tested on: BM cells derived from Jak2+/VF/Vavcre mice; assay: Megakaryocyte colony formation assay, BM cells from Jak2+/VF/Vavcre mice; format: cell-based, mouse; conditions: tolimidone 10 μM, 14 days
# Method: FIG. 22. BM cells from Jak^2+/VF/Vav^cre mice were plated and cultured for 14 days in the presence of IL-3 ([…]) and TPO (1 ng/mL) with or without tolimidone (10 μM). Megakaryocyte (Mk) colony was identified by cell morphology. Colony number/plate (a); Mk count/colony (b); and representative Mk colonies (c). Arrows indicate the projected proplatelet like structures from mature megakaryocytes. *p<0.05 between vehicle and tolimidone (10 μM).
# In order to assess this possibility, megakaryocyte colony formation assay with BM cells derived from Jak2+/VF/Vavcre mice were performed. […] Moreover, many of the mature megakaryocytes in the vehicle group started to form long-projected cell structures resembling proplatelets.
# c-MPL = assay: Cell surface c-MPL levels in MkPs by flow cytometry; format: cell-based, mouse
# Method: Detection of c-MPL from in vivo and in vitro experiments was performed as follows. After harvesting BM progenitor cells, RBCs were lysed and the cells were then resuspended in FACS buffer. Cells were then stained with a cocktail of lineage markers to allow negative selection of BM progenitor cells (Sca1, CD127, CD45R, CD19, CD11b, CD3e, TER-119, CD2, CD8, CD4, and Ly-6C/G; all FITC; eBioscience) and progenitor cell markers, ckit, CD16/CD32 (FcγRII/III), CD34, CD41 and c-MPL or isotype control and allowed to stain on ice for 30 mins. Cells were then washed and stained with a fluorescently conjugated secondary anti-rabbit antibody to detect the anti-c-MPL for a further 30 mins on ice. After this the cells were washed, resuspended in FACS buffer and run on the LSRII. MEPs were identified as lin^− ckit^+CD16/CD32^loCD34^loCD41^−, while MkPs were identified as lin^−ckit^+CD16/CD32^loCD34^loCD41^+.
# [2] = tested on: c-MPL(W515L) positive megakaryocyte progenitor cells; format: cell-based, mouse; conditions: tolimidone 10 μM, 10 days, IL-3 and TPO 1 ng/mL
# Method: FIG. 21. BM cells of the recipient transplanted with BM cells expressing c-MPL(W515) were cultured for 10 days in the presence of IL-3 ([…]) and TPO (1 ng/mL) with or without tolimidone (10 μM). Megakaryocyte (Mk) colonies expressing c-MPL (W515) were identified by cell morphology and GFP expression. Identity of MK was also confirmed by staining for acetylcholinesterase activity. Count of Mk colonies (a); Mk count per colony (b); total colony per plate (c); fluorescence microscopy of a single colony (d). *p<0.05 between vehicle and tolimidone treatment.
# Long-term, repeated rHDL infusions are less desirable relative to orally bioavailable small molecule compounds in treatment of chronic diseases such as MPNs. […] To assess the possibility that tolimidone limits megakaryopoiesis and thrombocytosis induced by c-MPL(W515), megakaryocyte colony formation assays with BM cells derived from mice with retroviral co-expression of c-MPL(W515L) and GFP in BM cells were used. […] Under the conditions of low TPO (1 ng/ml), the majority of cell colonies were non-megakaryocyte colonies.
compound,measurement,setting,value
Cc1cccc(Oc2cnc(=O)[nH]c2)c1 [Tolimidone],platelet count,platelets,reduces
same,Lyn kinase activity,Lyn tyrosine kinase,selectively increases; also recorded: potent and selective
same,anti-ulcer activity,ulcer,oral-active anti-ulcer activity
same,MkP proliferation,MkPs; Abcg4−/− MkPs,decreases
same,MkP proliferation,MkPs; WT MkPs,decreased
same,c-CBL tyrosine phosphorylation,c-CBL; Abcg4−/− MkPs,increases
same,c-CBL tyrosine phosphorylation,c-CBL; WT MkPs,increased
same,proportion of megakaryocytes that generated proplatelets,[1],reduced
same,number of megakaryocyte colonies,[1]; IL-3 and TPO 1 ng/mL,decreased
same,number of megakaryocytes in each colony,[1]; IL-3 and TPO 1 ng/mL,decreased
same,cell surface c-MPL levels,"c-MPL; Abcg4−/− MkPs, TPO 30 ng/ml",reverses; also recorded: reduces
same,cell surface c-MPL levels,"c-MPL; Abcg4−/− MkPs, tolimidone 10 μM and TPO for 2 h (FIG. 16)",significantly reduced
same,"effects in Lyn−/− MkPs (c-MPL, c-Cbl phosphorylation, proliferation)","c-MPL; Lyn−/− MkPs, expected",no effects
same,cell surface c-MPL levels,"c-MPL; WT MkPs, TPO 30 ng/ml",decreased
same,cell surface c-MPL levels,"c-MPL; WT and Abcg4−/− MkPs, BM cells of hypercholesterolemic Ldlr−/− mice, Tolimidone 10 μM, 30 ng/ml TPO, 2 hours (FIG. 20)",significantly reduced
same,GFP-positive megakaryocytes in each colony,[2],significantly reduced
same,number of GFP-positive megakaryocyte colonies,[2],significantly reduced
same,total number of colonies,[2],did not significantly affect
